Experiments:
THP-1 cells = test: Cell growth inhibition assay (CellTiter-Glo), THP-1; type: cell-based, human; settings: THP-1, 4 days; for GI50: Homo sapiens, 96 h, half-maximal growth inhibition; for THP-1 TGI: total growth inhibition
In short: (§1)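 Leukemia cells were exposed for 4 days at 37 °C to 3-fold dilution series from 10 μM (0.1% DMSO), then viable cells were quantified by CellTiter-Glo ATP luminescence. Signal was corrected for background and a day-0 plate, with vehicle set at 100% and medium-only at −100%. IC50 and TGI were obtained by four-parameter fit.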

BRD2 (His-Brd2(60-472)) = BRD2 (His-Brd2(60-472)) (Homo sapiens (Human), UniProt P25440); test: TR-FRET in-vitro binding assay for BRD2; settings: acetyl-histone H4 peptide
Sequence of BRD2 (His-Brd2(60-472)) (P25440 60-472): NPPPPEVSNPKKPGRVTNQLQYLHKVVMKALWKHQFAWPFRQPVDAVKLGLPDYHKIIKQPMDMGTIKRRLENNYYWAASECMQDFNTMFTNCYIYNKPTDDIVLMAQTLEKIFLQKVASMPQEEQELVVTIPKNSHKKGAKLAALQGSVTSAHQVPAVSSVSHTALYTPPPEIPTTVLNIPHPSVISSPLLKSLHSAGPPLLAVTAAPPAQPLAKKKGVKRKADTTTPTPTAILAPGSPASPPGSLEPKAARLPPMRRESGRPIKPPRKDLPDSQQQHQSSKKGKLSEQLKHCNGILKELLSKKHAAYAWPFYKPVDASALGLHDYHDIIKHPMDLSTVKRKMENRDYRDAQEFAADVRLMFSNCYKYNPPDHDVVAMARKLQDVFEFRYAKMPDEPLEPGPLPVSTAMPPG

K-562 cells = test: Cell growth inhibition assay (CellTiter-Glo), K-562; type: cell-based, human; settings: K-562, 4 days; for GI50: Homo sapiens, K562, 96 h, half-maximal growth inhibition; for K-562 TGI: total growth inhibition
In short: as §1

BRD4 (His-Brd4(44-477)) = BRD4 (His-Brd4(44-477)) (Homo sapiens (Human), UniProt O60885); test: TR-FRET in-vitro binding assay for BRD4; settings: acetyl-histone H4 peptide

SMILES	GI50 (THP-1 cells)	THP-1 TGI (THP-1 cells)	IC50 (BRD2 (His-Brd2(60-472)))	GI50 (K-562 cells)	K-562 TGI (K-562 cells)	IC50 (BRD4 (His-Brd4(44-477)))
Cc1cc(N2C(=O)c3c(C4CC4)nn(C)c3C2c2ccc(Cl)cc2)cn2c(C(F)F)nnc12 (racemic) [Example 3, 6-(4-chlorophenyl)-3-cyclopropyl-5-(3-(difluoromethyl)-8-methyl-[1,2,4]triazolo[4,3-a]pyridin-6-yl)-1-methyl-5,6-dihydropyrrolo[3,4-c]pyrazol-4(1H)-one]	12.4 nM	0.02945 µM	13 nM	73.5 nM	>10 µM	< 11 nM
COCCn1nc(C2CC2)c2c1C(c1ccc(Cl)cc1)N(c1cc(C)c3nnc(C)n3c1)C2=O (racemic) [Example 4, 6-(4-chlorophenyl)-3-cyclopropyl-5-(3,8-dimethyl-[1,2,4]triazolo[4,3-a]pyridin-6-yl)-1-(2-methoxyethyl)-5,6-dihydropyrrolo[3,4-c]pyrazol-4(1H)-one]	11.9 nM	0.02795 µM	17 nM	56.8 nM	>10 µM	< 11 nM
COc1cc(N2C(=O)c3c(C4CC4)nn(C)c3C2c2ccc(Cl)cc2)cn2c(C)nnc12 (racemic) [Example 5, 6-(4-chlorophenyl)-3-cyclopropyl-5-(8-methoxy-3-methyl-[1,2,4]triazolo[4,3-a]pyridin-6-yl)-1-methyl-5,6-dihydropyrrolo[3,4-c]pyrazol-4(1H)-one]	81.4 nM	0.1475 µM	54 nM	373 nM	>10 µM	28 nM
Cc1cc(N2C(=O)c3c(C4CC4)nn(C)c3C2c2ccc(Cl)cc2)cn2c(CF)nnc12 (racemic) [Example 16, 6-(4-chlorophenyl)-3-cyclopropyl-5-(3-(fluoromethyl)-8-methyl-[1,2,4]triazolo[4,3-a]-pyridin-6-yl)-1-methyl-5,6-dihydropyrrolo[3,4-c]pyrazol-4(1H)-one]	18.7 nM	0.0516 µM	16 nM	122 nM	>10 µM	15 nM
Cc1cc(N2C(=O)c3c(C4CC4)nn(C)c3C2c2ccc(Cl)cc2)cn2c(C)nnc12 (stereo not drawn) [Example 1, 6-(4-chlorophenyl)-3-cyclopropyl-5-(3,8-dimethyl-[1,2,4]triazolo[4,3-a]pyridin-6-yl)-1-methyl-5,6-dihydropyrrolo[3,4-c]pyrazol-4(1H)-one]	9.6 nM	0.0204 µM	29 nM	51.9 nM	>10 µM	24 nM
Cc1cc(N2C(=O)c3c(C4CC4)nn(C)c3[C@H]2c2ccc(Cl)cc2)cn2c(C)nnc12 [Example 2, (R)-6-(4-chlorophenyl)-3-cyclopropyl-5-(3,8-dimethyl-[1,2,4]triazolo[4,3-a]pyridin-6-yl)-1-methyl-5,6-dihydropyrrolo[3,4-c]pyrazol-4(1H)-one]	6.37 nM	0.01495 µM	11 nM	29.2 nM	>10 µM	< 11 nM
COc1cc(N2C(=O)c3c(C4CC4)nn(C)c3C2c2ccc(Cl)cc2)cc2c1nnn2C (stereo not drawn) [Example 6]	63 nM	0.1181 µM	38 nM	204 nM	>10 µM	22 nM
Cc1cc(N2C(=O)c3c(C4CC4)nn(C)c3[C@H]2c2ccc(Cl)cc2)cn2c(C(F)F)nnc12 [Example 7, (R)-6-(4-chlorophenyl)-3-cyclopropyl-5-(3-(difluoromethyl)-8-methyl-[1,2,4]triazolo-[4,3-a]pyridin-6-yl)-1-methyl-5,6-dihydropyrrolo[3,4-c]pyrazol-4(1H)-one]	5.65 nM	0.0148 µM	13 nM	46.3 nM	>10 µM	< 11 nM
COCCn1nc(C2CC2)c2c1C(c1ccc(Cl)cc1)N(c1cc(C)c3nnc(CF)n3c1)C2=O (stereo not drawn) [Example 18, 6-(4-chlorophenyl)-3-cyclopropyl-5-(3-(fluoromethyl)-8-methyl-[1,2,4]triazolo[4,3-a]-pyridin-6-yl)-1-(2-methoxyethyl)-5,6-dihydropyrrolo[3,4-c]pyrazol-4(1H)-one]	19.2 nM	0.04645 µM	33 nM	139 nM	>10 µM	25 nM
Cc1nnc2c(NC(=O)OC(C)(C)C)cc(N3C(=O)c4c(C5CC5)nn(C)c4C3c3ccc(Cl)cc3)cn12 (stereo not drawn) [Example 27, tert-butyl (6-(6-(4-chlorophenyl)-3-cyclopropyl-1-methyl-4-oxopyrrolo[3,4-c]pyrazol-5(1H,4H,6H)-yl)-3-methyl-[1,2,4]triazolo[4,3-a]pyridin-8-yl)carbamate]	22.8 nM	0.04465 µM	47 nM	164 nM	>10 µM	36 nM
CCOC(=O)Nc1cc(N2C(=O)c3c(C4CC4)nn(C)c3C2c2ccc(Cl)cc2)cn2c(C)nnc12 (stereo not drawn) [Example 29, ethyl (6-(6-(4-chlorophenyl)-3-cyclopropyl-1-methyl-4-oxopyrrolo[3,4-c]pyrazol-5-(1H,4H,6H)-yl)-3-methyl-[1,2,4]triazolo[4,3-a]pyridin-8-yl)carbamate]	2.59 nM	0.00762 µM	23 nM	23.6 nM	>10 µM	23 nM
